# In US20070072181A1 (priority 2003, published 2007):
# Where two headings read alike, the source gives them in different places.
# System: VSV
# Format: cell-based
compound,measurement,setting,value
"Cc1ccc(=O)n(-c2ccccc2)c1 [PD, 5-methyl-1-phenyl-2-(1H)-pyridone]",Mean (Means for Oneway Anova; antiviral effect),"0.001 ng interferon + 3 μg pirfenidone (PD), HeLa, VSV",0.6002
same,Mean (Means for Oneway Anova; antiviral effect),"0.001 ng interferon + 30 μg pirfenidone (PD), HeLa, VSV",0.543
same,Mean (Means for Oneway Anova; antiviral effect),"0.001 ng interferon + 300 μg pirfenidone (PD), HeLa, VSV",0.3705
same,Mean (Means for Oneway Anova; antiviral effect),"0.0049 ng interferon + 3 μg pirfenidone (PD), HeLa, VSV",0.407
same,Mean (Means for Oneway Anova; antiviral effect),"0.0049 ng interferon + 30 μg pirfenidone (PD), HeLa, VSV",0.3033
same,Mean (Means for Oneway Anova; antiviral effect),"0.0049 ng interferon + 300 μg pirfenidone (PD), HeLa, VSV",0.1915
same,Mean (Means for Oneway Anova; antiviral effect),"0.019 ng interferon + 3 μg pirfenidone (PD), HeLa, VSV",0.519
same,Mean (Means for Oneway Anova; antiviral effect),"0.019 ng interferon + 30 μg pirfenidone (PD), HeLa, VSV",0.284
same,Mean (Means for Oneway Anova; antiviral effect),"0.019 ng interferon + 300 μg pirfenidone (PD), HeLa, VSV",0.1785
same,Mean (Means for Oneway Anova; antiviral effect),"0.076 ng interferon + 3 μg pirfenidone (PD), HeLa, VSV",0.68
same,Mean (Means for Oneway Anova; antiviral effect),"0.076 ng interferon + 30 μg pirfenidone (PD), HeLa, VSV",0.4505
same,Mean (Means for Oneway Anova; antiviral effect),"0.076 ng interferon + 300 μg pirfenidone (PD), HeLa, VSV",0.1938
same,Mean (Means for Oneway Anova; antiviral effect),"0.3 ng interferon + 3 μg pirfenidone (PD), HeLa, VSV",0.5563
same,Mean (Means for Oneway Anova; antiviral effect),"0.3 ng interferon + 30 μg pirfenidone (PD), HeLa, VSV",0.4298
same,Mean (Means for Oneway Anova; antiviral effect),"0.3 ng interferon + 300 μg pirfenidone (PD), HeLa, VSV",0.1948
same,Mean (Means for Oneway Anova; antiviral effect),"1.2 ng interferon + 3 μg pirfenidone (PD), HeLa, VSV",0.306
same,Mean (Means for Oneway Anova; antiviral effect),"1.2 ng interferon + 30 μg pirfenidone (PD), HeLa, VSV",0.4248
same,Mean (Means for Oneway Anova; antiviral effect),"1.2 ng interferon + 300 μg pirfenidone (PD), HeLa, VSV",0.1872
same,Mean (Means for Oneway Anova; antiviral effect),"4.8 ng interferon + 3 μg pirfenidone (PD), HeLa, VSV",0.245
same,Mean (Means for Oneway Anova; antiviral effect),"4.8 ng interferon + 30 μg pirfenidone (PD), HeLa, VSV",0.3757
same,Mean (Means for Oneway Anova; antiviral effect),"4.8 ng interferon + 300 μg pirfenidone (PD), HeLa, VSV",0.325
same,Mean (Means for Oneway Anova; antiviral effect),"19 ng interferon + 3 μg pirfenidone (PD), HeLa, VSV",0.979
same,Mean (Means for Oneway Anova; antiviral effect),"19 ng interferon + 30 μg pirfenidone (PD), HeLa, VSV",0.2968
same,Mean (Means for Oneway Anova; antiviral effect),"19 ng interferon + 300 μg pirfenidone (PD), HeLa, VSV",0.4105
same,effect on the antiviral effects of interferon,"low doses of Pirfenidone with interferon, HeLa, VSV",enhance the antiviral effects of interferon
same,effect on viral growth in combination with IFN-α,low doses of pirfenidone in combination therapy with IFN-α,synergistic effect on reducing viral growth
